Results as given in patent US11485714B2, “Hydroxyethylamine-based piperazine compounds, and methods of producing and using the same for treating disease” (National Institute of Immunology, priority 2020, dated 2022).
Like-named read-outs stand apart in the source and are kept apart here. Marks after values point to notes of the source that are not given here.

Assays:
[1] = system: P. falciparum CQ-resistant (PfDd2); assay: SYBR Green I assay, asynchronous cultures, CQ-resistant clone; format: cell-based; conditions: Plasmodium falciparum
[2] = system: peripheral blood mononuclear cells (PBMCs); assay: In vitro cytotoxicity, PBMC (MTT, Cell Titer Glo); format: cell-based, human
Description: (§1) [6] PBMC were isolated from healthy donors using the Ficoll-Paque™ technique (GE Healthcare Bioscience AB, Uppsala, Sweden) from donor leukopack samples obtained from LUMC blood bank services. […] Robust cells at a concentration of 80,000 cells/ml were plated into 96-well plates and incubated for 24 hours. Cell viability and proliferation was determined by use of both MTT and Cell Titer Glo@ assays for both cell types. MTT assay was conducted by addition of 10 μL MTT solution (5 mg/mL) into each well, incubated for 4 hour at 37° C. followed by addition of 50 μL DMSO to dissolve the formazan precipitate according to the manufacturer's protocol. Aliquots were drawn from each well and color intensity was measured spectrophotometrically in SpectraMax® M5 Multi-Mode Microplate Reader.
(§2) The cytotoxicity of Compound I was tested by exposing peripheral blood mononuclear cells (PBMCs) to drug concentrations corresponding to averages of both Pf3D7 and PfDd2 IC50 values. This was intended to establish whether the observed antiparasitic effects of the compounds were due to non-specific inhibitory activity. […] The IC50 required for killing the parasite is <90 nM. Therefore, in order to be toxic for human cells we have to use over 650 fold concentration.

[3] = In vitro cytotoxicity, PBMC (MTT, Cell Titer Glo); format: cell-based, human; conditions: human; PBMCs; read-out: CC50 (50% cell toxicity)
Description: as §1, §2

[4] = system: Plasmodium berghei NK-65 (chloroquine-resistant); assay: In vivo blood stage mouse model, modified Peters four-day suppressive test
Description: Specifically, a murine model of malaria was developed wherein thirty healthy Swiss albino mice were inoculated intraperitoneally with 1×10^7 Plasmodium berghei NK-65 (chloroquine-resistant) infected red blood cells (RBCs) suspended in RPMI 1640 medium (commercially available from Thermo Fisher Scientific Inc.; 200 μL). A first set of the infected mice was treated each day with a single dose of 50 mg/kg of Compound I, and a second set was not treated. The survival of the mice was monitored to day 30 post-infection using a Kaplan-Meier survival analysis, and the statistical difference in animal survival was analyzed by a log rank test. Representative data for the percent parasitemia for untreated mice (control) and mice treated with Compound I are shown in Table 4 and FIG. 2A and FIG. 2B.
Activity of Compound I (Calxinin) was tested using a slightly modified version of Peter's 4-day suppressive test: initial infection of mice with P. berghei parasites, followed one dose 50 mg/kg of drug treatment, followed by monitoring of parasitemia as well as external signs of disease progression for up to 10 days.
10^7 Plasmodium berghei NK-65 (CQ-resistant) were administered by i.p into Swiss albino mice (6 mice/group). Infected mice were either treated with Compound I (Calxinin) or injected with DMSO alone (untreated vehicle control). […] The survival of the mice was followed up to day 30 post-infection using Kaplan-Meier survival analysis (FIG. 6B). Animal survival was analyzed by a log rank test.

[5] = In vivo acute toxicity study and pathological examination; set-up: species or system BALB/C mice
From the text: Again mice were randomly divided in two groups. Each group consisted of 3 mice.
Mice were divided into two groups of three mice. […] Again Mice were randomly divided in two groups. Each group consisted of 3 mice. […] Serum was taken for biochemistry studies.

[6] = Hemostatic parameters, plasmatic and whole blood assays (thrombelastography)
Description: Studies were performed to assess the effect of Calxinin on hemostatic parameters using plasmatic and whole blood assays.

[7] = In vitro cytotoxicity, Huh 7.1 (Alamar Blue); format: cell-based; conditions: human, Huh 7.1 cells; read-out: CC50 (50% cell toxicity)
Description: In addition, the cell viability of Huh 7 and HEK293 cells was evaluated post drug exposure using the Alamar Blue assay [Riss, Terry L., et al. “Cell viability assays.” Assay Guidance Manual [Intenet]. Eli Lilly & Company and the National Centre for Advancing Translational Sciences, 2016]. Cells ([…]) were exposed to varying concentrations of test compounds, for 24 hours in 96-well plate format along with 10/100 μL Alamar Blue solution (10×=4.8 mM in phosphate buffer) per well. […] Results from the cytotoxicity assays were expressed as CC50 at which 50% of the cells died/metabolically slowed down due to drug exposure compared to the non-treated and vehicular control.
as §2

[8] = system: parasitized RBC; assay: Calcium levels in parasitized RBC; format: cell-based; conditions: 10 μM, within a few seconds, preliminary
Description: No difference in the activity of the Calcium T Channel was observed under control conditions and with increasing concentrations of the Calxinin molecule, there is no difference in the amplitude of the calcium channel currents, nor in the dependence with the membrane potential of calcium channel activation up to 1 microMolar, that is […] higher than the IC50 to kill the parasite. Human T-type calcium channel currents were measured with the Patch clamp on the “whole cell” configuration in HEK cells constitutively expressing human T type Calcium channel. […] As shown, in FIG. 9 no difference in the amplitude of the calcium channel currents, nor in the dependence with the membrane potential of calcium channel activation even at 11 times the IC50 concentration. Preliminary results of parasitized RBC treated with CQ (I0 μM)+DMSO (negative control) and treated Compound I (10 μM, data not shown) were generated.

[9] = system: sexual erythrocytic stages of PfDd2 cultures; assay: Anti-gametocyte activity, stage I and II gametocytes; format: cell-based, Plasmodium falciparum
Description: The effect of Compound I was tested on the development of sexual erythrocytic stages of PfDd2 cultures. Stage I and II gametocytes, were incubated for forty-eight hours with drug concentration considering the IC50 values of compounds at asexual stage assay.

SMILES: NC(Cc1ccccc1)C(O)CN1CCN(Cc2ccc(C(F)(F)F)cc2)CC1 (centres unmarked) [Compound I]
- IC50 ([1]; 72 h, read-out: PfDd2 IC50, nM (±SD)): 88 nM
- IC50 ([1]; DD2, read-out: IC50 against asexual stages, drug resistant (CQ-resistant) DD2): 88 nM
- IC50 ([1]; read-out: mean half maximal inhibitory concentration (IC50) for PfDd2): 88 nM
- % PBMC viability relative to vehicle control ([2]; 24 hours): > 100%
- proliferation of the PBMCs (PBMC) ([2]; concentration = average of Pf3D7 and PfDd2 IC50, Cell Titer-GLO): 110.12
- CC50 at 24 h [3]: 1000 µM
- activity against mixed blood stages ([4]; 50 mg/kg/day (single dose), NK64 strain): significant activity
- Percent Parasitemia Day 3 ([4]; Table 4, 50 mg/kg each day): 0.21 ** (P < 0.001)
- Percent Parasitemia Day 7 ([4]; Table 4, 50 mg/kg each day): 2.45 * (P < 0.03)
- Percent Parasitemia Day 10 ([4]; Table 4, 50 mg/kg each day): 12.3 * (P < 0.01)
- % Parasitemia Day 3 ([4]; Table 5, one dose 50 mg/kg): 0.21 ** (P < 0.001) %
- % Parasitemia Day 7 ([4]; Table 5, one dose 50 mg/kg): 2.45 * (P < 0.03) %
- % Parasitemia Day 10 ([4]; Table 5, one dose 50 mg/kg): 12.3 * (P < 0.01) %
- reduction in parasite load ([4]; single dose 10 mg/kg, P. berghei NK64, mixed blood stage parasites): 30%
- pathological examination of liver, kidney, stomach ([5]; 300 mg/kg oral for four consecutive days): does not indicate an increase or decrease of Kuepfer cells in the liver, loss of structural integrity in the kidney or lining of stomach
- toxicity overall ([5]; 1200 mg/kg (300 mg/kg for four consecutive days)): no indication of toxicity
- behavior ([5]; oral): no behavior changes were observed
- body weight ([5]; oral): remained constant
- motor and feeding activities ([5]; oral): normal
- anticoagulant effect (hemostatic parameters) [6]: no adverse impact
- clot formation by thrombelastography ([6]; up to 20 μg/ml): did not impact clot formation
- CC50 at 24 h [7]: 100 µM
- calcium levels of packed red blood cells (pRBCs) [8]: changes in the calcium levels
- maturation of stage III to V gametocytes (PfDd2) ([9]; 48 hours at asexual stage IC50, vs DMSO control): 41.0
- gametocyte morphology ([9]; 48 hours, vs DMSO control): morphologically distorted gametocytes
- decreased proportion of stage III to V gametocytes ([9]; 48 hrs at 88 nM): up to 59%
